From US20130123481A1, “MODIFIED NUCLEOSIDES, NUCLEOTIDES, AND NUCLEIC ACIDS, AND USES THEREOF” (MODERNA THERAPEUTICS, priority 2011, published 2013)
Like-named read-outs stand apart in the source and are kept apart here.

Tests used:
HeLa cells [1] = assay: In vitro Screening in HeLa Cells - luciferase (RLU); type: cell-based, human; parameters: key to Protein (Luc; HeLa): the protein production of HeLa is judged by “+,” “+/−” and “−”; the protein production of HeLa is judged by “+,” “+/−” and “−”; the protein production of HeLa is judged by “+,” “+/−” and “−”
Experimental: The 2′Fluoro-modified mRNA were then transfected into HeLa cells to assess protein production in a cell context and the same mRNA were also assessed in a cell-free rabbit reticulocyte system. A control of unmodified luciferase (natural luciferase) was used for both transcription experiments, a control of untreated and mock transfected (Lipofectamine 2000 alone) were also analyzed for the HeLa transfection and a control of no RNA was analyzed for the rabbit reticulysates.
For the HeLa transfection experiments, the day before transfection, 20,000 HeLa cells (ATCC no. CCL-2; Manassas, Va.) were harvested by treatment with Trypsin-EDTA solution (LifeTechnologies, Grand Island, N.Y.) and seeded in a total volume of 100 ul EMEM medium (supplemented with 10% FCS and 1× Glutamax) per well in a 96-well cell culture plate (Corning, Manassas, Va.). The cells were grown at […] in 5% CO2 atmosphere overnight. […] Lipofectamine 2000 (LifeTechnologies, Grand Island, N.Y.) was used as transfection reagent and 0.2 ul were diluted in 10 ul final volume of OPTI-MEM. After […] of incubation at room temperature, both solutions were combined and incubated an additional 15 minute at room temperature. Then the 20 ul combined solution was added to the 100 ul cell culture medium containing the HeLa cells and incubated at room temperature. After 18 to 22 hours of incubation cells expressing luciferase were lysed with 100 ul of Passive Lysis Buffer (Promega, Madison, Wis.) according to manufacturer instructions. Aliquots of the lysates were transferred to white opaque polystyrene 96-well plates (Corning, Manassas, Va.) and combined with 100 ul complete luciferase assay solution (Promega, Madison, Wis.). The lysate volumes were adjusted or diluted until no more than 2 mio relative light units (RLU) per well were detected for the strongest signal producing samples and the RLUs for each chemistry tested are shown in Table 42. The plate reader was a BioTek Synergy H1 (BioTek, Winooski, Vt.). The background signal of the plates without reagent was about 200 relative light units per well.
To evaluate using of 2′fluoro-modified mRNA in combination with other modification a series of mRNA were transcribed using either wild-type T7 polymerase (non-fluoro-containing compounds) or using mutant T7 polymerases (fluyoro-containing compounds) as described in Example 86. All modified mRNA were tested by in vitro transfection in HeLa cells.
After 18 to 22 hours of incubation cells expressing luciferase were lysed with 100 ul of Passive Lysis Buffer (Promega, Madison, Wis.) according to manufacturer instructions. Aliquots of the lysates were transferred to white opaque polystyrene 96-well plates (Corning, Manassas, Va.) and combined with 100 ul complete luciferase assay solution (Promega, Madison, Wis.). The lysate volumes were adjusted or diluted until no more than 2 mio relative light units (RLU) per well were detected for the strongest signal producing samples and the RLUs for each chemistry tested are shown in Table 44. The plate reader was a BioTek Synergy H1 (BioTek, Winooski, Vt.). The background signal of the plates without reagent was about 200 relative light units per well.

[2] = system: peripheral blood mononuclear cells (PBMC); assay: In Vitro Screening in PBMC - G-CSF protein expression; type: cell-based, human; conditions: background about 110 pg/ml
From the text: (§1) The supernatant was harvested and stored frozen until analyzed by ELISA to determine the G-CSF protein expression, and the induction of the cytokines interferon-alpha (IFN-α) and tumor necrosis factor alpha (TNF-α).

HeLa cells [3] = assay: G-CSF expression in HeLa cells (ELISA); type: cell-based, human; parameters: key to Protein (G-CSF; HeLa): the protein production of HeLa is judged by “+,” “+/−” and “−”; the protein production of HeLa is judged by “+,” “+/−” and “−”; the protein production of HeLa is judged by “+,” “+/−” and “−”; conditions: for G-CSF protein (pg/ml) HeLa cells: fully modified G-CSF mRNA transfected in HeLa cells, ELISA
Experimental: (§2) To assess the activity of all our different chemical modifications in the context of a second open reading frame, we replicated experiments previously conducted using luciferase mRNA, with human G-CSF mRNA. […] The mutant T7 polymerase was obtained commercially (Durascribe® T7 Transcription kit (Cat. No. DS010925) (Epicentre®, Madison, Wis.).
(§3) The modified RNA in Tables 45 and 46 were transfected in vitro in HeLa cells or added to rabbit reticulysates (250 ng of modified mRNA) as indicated. […] In Table 45, “NT” means not tested.

[4] = system: peripheral blood mononuclear cells (PBMC), interferon-alpha (IFN-α); type: cell-based, human; conditions: IFN-alpha, background about 70 pg/ml
From the text: as §1

wild-type T7 polymerase = wild-type T7 polymerase (Escherichia phage T7, UniProt P00573); assay: In Vitro Transcription with Wild-Type T7 Polymerase (transcription and capping yield); conditions: for IVT (G-CSF), first result / IVT (Luc), first result: Table 48 non-naturally occurring; for IVT (G-CSF), first result / IVT (G-CSF): G-CSF mRNA in vitro transcription; for IVT (G-CSF), first result / IVT (Luc), first result / IVT (G-CSF) / IVT (Luc): Pass/Fail; for IVT (Luc), first result / IVT (Luc): luciferase mRNA in vitro transcription; for IVT (G-CSF) / IVT (Luc): Table 47 naturally occurring
wild-type T7 polymerase, sequence (P00573 whole entry): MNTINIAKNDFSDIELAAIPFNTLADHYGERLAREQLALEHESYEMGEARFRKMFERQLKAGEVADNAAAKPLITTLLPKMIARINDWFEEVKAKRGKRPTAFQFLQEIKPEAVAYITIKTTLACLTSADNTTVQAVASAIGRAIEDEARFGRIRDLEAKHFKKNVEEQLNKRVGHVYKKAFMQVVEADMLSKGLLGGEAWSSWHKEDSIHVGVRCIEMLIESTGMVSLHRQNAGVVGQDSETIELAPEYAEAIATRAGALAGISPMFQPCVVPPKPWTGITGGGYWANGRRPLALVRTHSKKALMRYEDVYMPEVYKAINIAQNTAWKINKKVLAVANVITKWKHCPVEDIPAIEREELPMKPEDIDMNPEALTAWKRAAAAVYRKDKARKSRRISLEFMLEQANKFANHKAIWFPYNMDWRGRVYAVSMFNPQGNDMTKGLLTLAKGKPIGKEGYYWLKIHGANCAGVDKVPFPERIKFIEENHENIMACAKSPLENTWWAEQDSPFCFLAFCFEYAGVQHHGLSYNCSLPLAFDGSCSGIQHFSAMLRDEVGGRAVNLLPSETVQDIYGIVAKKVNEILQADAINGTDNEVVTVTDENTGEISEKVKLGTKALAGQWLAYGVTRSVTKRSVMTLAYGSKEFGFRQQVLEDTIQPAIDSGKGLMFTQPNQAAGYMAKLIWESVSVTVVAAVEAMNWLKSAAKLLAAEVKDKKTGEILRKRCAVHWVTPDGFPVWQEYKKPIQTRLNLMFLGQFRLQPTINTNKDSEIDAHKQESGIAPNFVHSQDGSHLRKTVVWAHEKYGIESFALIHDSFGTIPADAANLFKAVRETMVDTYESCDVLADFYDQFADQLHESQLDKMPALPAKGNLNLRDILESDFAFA
Experimental: The luciferase and G-CSF modified mRNA were also subjected to an enzymatic capping reaction and each modified mRNA capping reaction was evaluated for yield by spectrophometic measurement (OD260) and correct size assessed using bioanalyzer.

rabbit reticulysates = assay: G-CSF expression in rabbit reticulysates (ELISA); type: biochemical; conditions: 250 ng modified G-CSF mRNA in rabbit reticulysates
Experimental: as §2, §3

[5] = Table 48 non-naturally occurring, ** mutant T7 polymerase
[6] = Table 48 non-naturally occurring
[7] = Table 47 naturally occurring, *** = production seen in cell free translations

Molecule: COC(=O)C=Cc1cn([C@@H]2O[C@H](CO)[C@@H](O)[C@H]2O)c(=O)[nH]c1=O [5-(2-carbomethoxyvinyl) Uridine]
- Protein (Luc; HeLa) (HeLa cells [1]; [5]): −
- Protein (G-CSF; PBMC) [2, 6]: +/− (“+/−” means 150-300 pg/ml G-CSF)
- Protein (G-CSF; HeLa) (HeLa cells [3]; [6]): −
- Cytokines (G-CSF; PBMC) [4, 6]: − (“−” means less than 100 pg/ml)
- IVT (G-CSF), first result (wild-type T7 polymerase): Pass
- IVT (Luc), first result (wild-type T7 polymerase): Pass

Molecule: Nc1nc(=O)n([C@@H]2O[C@H](CO)[C@@H](O)[C@H]2O)cc1C=O [5-formylcytidine (f^5C)]
- Protein (Luc; HeLa) (HeLa cells [1]; [7]): −***
- Protein (G-CSF; HeLa) (HeLa cells [3]; [7]): −***
- Cytokines (G-CSF; PBMC) ([4]; Table 47 naturally occurring): + (“+” means greater than 100 pg/ml IFN-alpha)
- IVT (G-CSF) (wild-type T7 polymerase): Pass
- IVT (Luc) (wild-type T7 polymerase): Pass

Molecule: Cn1cnc2c(ncn2[C@@H]2O[C@H](CO)[C@@H](O)[C@H]2O)c1=N [Compound N1-methyl-adenosine, N1-methyl-adenosine]
- G-CSF protein (pg/ml) Rabbit reticulysates cells (rabbit reticulysates): 0 pg/mL
- G-CSF protein (pg/ml) HeLa cells (HeLa cells [3]): 4,773 pg/ml

Molecule: Luciferase control
- G-CSF protein (pg/ml) Rabbit reticulysates cells (rabbit reticulysates): 0 pg/mL

Molecule: O=c1[nH]c(=S)ccn1[C@@H]1O[C@H](CO)[C@@H](O)[C@H]1O [4-thiouridine (s^4U)]
- Protein (G-CSF; PBMC) ([2]; Table 47 naturally occurring): +/− (“+/−” means 150-300 pg/ml G-CSF)
- Protein (G-CSF; HeLa) (HeLa cells [3]; [7]): +
- Cytokines (G-CSF; PBMC) ([4]; Table 47 naturally occurring): ++ (“++” means greater than 300 pg/ml IFN-alpha)
- IVT (G-CSF) (wild-type T7 polymerase): Pass
- IVT (Luc) (wild-type T7 polymerase): Fail

Molecule: O=c1ccn([C@@H]2O[C@H](CO)[C@@H](O)[C@H]2O)c(=S)[nH]1 [2-thiouridine (s^2U)]
- Protein (Luc; HeLa) (HeLa cells [1]; [7]): −
- Protein (G-CSF; PBMC) ([2]; Table 47 naturally occurring): + (“+” means greater than 300 pg/ml G-CSF)
- Protein (G-CSF; HeLa) (HeLa cells [3]; [7]): +
- Cytokines (G-CSF; PBMC) ([4]; Table 47 naturally occurring): + (“+” means greater than 100 pg/ml IFN-alpha)
- IVT (G-CSF) (wild-type T7 polymerase): Pass
- IVT (Luc) (wild-type T7 polymerase): Pass

Molecule: N-1-methyladenosine [Compound N-1-methyladenosine]
- In vitro transcription Yield (wild-type T7 polymerase; G-CSF mRNA, wild-type T7 polymerase, OD260): 0.63 mg

Molecule: O=c1[nH]c(=O)n([C@@H]2O[C@H](CO)[C@@H](O)[C@H]2O)cc1Br [5-Bromo-uridine]
- G-CSF protein (pg/ml) Rabbit reticulysates cells (rabbit reticulysates): 72,000 pg/ml
- G-CSF protein (pg/ml) HeLa cells (HeLa cells [3]): 186,591 pg/ml

Molecule: 5-Br-Uridine [Compound 5-Br-Uridine]
- Protein (Luc; HeLa) (HeLa cells [1]; [5]): +
- Protein (G-CSF; PBMC) [2, 6]: + (“+” means greater than 300 pg/ml G-CSF)
- Protein (G-CSF; HeLa) (HeLa cells [3]; [6]): +
- Cytokines (G-CSF; PBMC) [4, 6]: + (“+” means greater than 100 pg/ml IFN-alpha)
- IVT (G-CSF), first result (wild-type T7 polymerase): Pass
- IVT (Luc), first result (wild-type T7 polymerase): Pass

Molecule: COC(=O)C=Cc1cn([C@@H]2O[C@H](CO)[C@@H](O)[C@H]2O)c(=O)[nH]c1=O [5-(2carbomethoxyvinyl) uridine]
- G-CSF protein (pg/ml) Rabbit reticulysates cells (rabbit reticulysates): 0 pg/mL
- G-CSF protein (pg/ml) HeLa cells (HeLa cells [3]): 1,364 pg/ml

Molecule: CNc1ncnc2c1ncn2[C@@H]1O[C@H](CO)[C@@H](O)[C@H]1O [Compound N6-methyl-adenosine, N6-methyl-adenosine]
- G-CSF protein (pg/ml) Rabbit reticulysates cells (rabbit reticulysates): 0 pg/mL
- G-CSF protein (pg/ml) HeLa cells (HeLa cells [3]): 1,591 pg/ml
